Data reported in patent US9150528B2, “Compound having detrusor muscle-contracting activity and urethral sphincter muscle-relaxing activity” (ONO PHARMACEUTICAL CO., LTD., priority 2009, dated 2015).

Legend:
[1] = Systemic clearance after intravenous administration; assay type: in vivo; settings: plasma, cynomolgus monkey, 0.001 mg/mL/kg
Description: Equimolar sodium hydroxide and injectable distilled water were added to each of the test compounds to prepare a 1 mg/mL aqueous solution. The aqueous solution was diluted with physiological saline until the concentration reached 0.001 mg/mL and was rapidly administered at a dose of 0.001 mg/mL/kg to cynomolgus monkey through the cephalic vein. Via heparinized syringes, 2 min, 5 min, 15 min, 30 min, 1 hr, 2 hr, 4 hr, 6 hr, 8 hr and 24 hr after administration, blood was drawn from the cephalic vein (non-administered sites). After centrifugation, blood plasma was sampled and stored at −80° C. before pretreatment. The blood plasma was pretreated by mixing with acetonitrile and centrifuging to remove proteins followed by measurement by LC/MS/MS. Changes of concentration in blood plasma was analyzed using WinNonlin4.0.1 to evaluate the systemic clearance of the test compound.

[2] = system: urinary excretion dysfunction models; assay: Urinary excretion dysfunction models, maximal urinary flow rate; assay type: in vivo; settings: 60 ng/kg/h continuous intravenous, cynomolgus monkey urinary excretion dysfunction model
Excerpt: Urinary excretion dysfunction models were constructed in accordance with the following procedure. After anesthesia of cynomolgus monkeys, the region from the suprapubic area to the abdominal area was shaved, followed by fixing in a dorsal position. The shaved region was disinfected and the four legs were fixed. Using an electrosurgical knife, the skin region from the suprapubic area to the umbilical area and the peritoneal membrane were sequentially incised, followed by damage to the pelvic nerve and removal of the uterus. After the surgical operation, viccillin-containing physiological saline was added dropwise to the incised area. The peritoneal membrane and skin of the incised area were sutured with silk threads and disinfected. Viccillin was administered for 7 consecutive days after surgery. Meloxicam was administered once daily for 7 consecutive days to manage pain in the perioperative period.
The cynomolgus monkeys were seated on monkey chairs, followed by retention of the hands and legs with strings. Injectable water was administered orally, and physiological saline and the test compound (60 ng/kg/h) were continuously administered intravenously to allow urination freely. The maximal urinary flow rate was measured using a urine weighing sensor.

normal rats = assay: Blood pressures and heart rates in normal rats; assay type: in vivo, rat; settings: 0.3 mg/kg, oral
Description: The blood pressures and heart rates of female Wistar rats were measured in accordance with the following procedure. On the day of measurement, indwelling of catheters for blood pressure•heart rate measurement was carried out under anesthesia with ether. The back of the neck of each rat was incised; a feeding catheter (Atom Medical Corporation) filled with heparinized physiological saline was introduced from the back of the neck; the catheter was inserted into the common carotid artery; and the surgical incision was closed. The measurements were carried out in a Bollmann cage under the conscious state, and the evaluations were carried out after confirming that the individual parameters were stabilized. After confirming the stabilization of blood pressure and heart rate, the test compound which was prepared using injectable water containing equimolar NaOH was orally administered at a dose of 5 mL/kg.
The catheter drawn from the back of the neck was connected to a pressure transducer (DX-200, NIHON KOHDEN CORP.), and the blood pressures and heart rates were measured using an amplifier for pressure measurement (Gould Instrument). The blood pressures and heart rates were recorded using a recorder (LINEARCORDERWR3320, GRAPHTEC). For each individual, rates of increase and decrease in average blood pressure and heart rate before administration and 30, 60, 120, and 180 min after administration were calculated with respect to the values of each individual before administration. Changes in blood pressure and heart rate before and after administration of the test compound were evaluated.

C=CCC[C@](C)(O)C/C=C/[C@H]1CCC(=O)[C@@H]1CCSc1nc(C(=O)O)cs1 [Comparative compound D, 2-[(2-{(1R,2R)-2-[(1E,4S)-4-hydroxy-4-methyl-1,7-octadien-1-yl]-5-oxocyclopentyl}ethyl)thio]-1,3-thiazole-4-carboxylic acid]
clearance [1]: 23.9 mL/min/kg | improvement in maximal urinary flow rate over the vehicle group [2]: 36% | effect on the blood pressure (normal rats): tendency to decrease | increase in heart rate (normal rats): about 20%
